Series [1] deals with P. falciparum Sierra Leone (D-6) clone. Briefly: In vitro antimalarial pLDH assay, D-6 clone. In kind it is cell-based. Conditions: for IC50: Plasmodium falciparum, Erythrocyte, read-out: IC50 (ng/mL) D-6; for IC50 / IC50 (ng/mL) D-6: 72 h, parasitized red blood cells, pLDH readout, NA = Not active. On the procedure: (§1) Artemisinin 1 and the analogs rac-2, 2a, 2b, 9–16, diastereomers 19a, 19b, 22 and 29 were tested in vitro in parasitized whole blood against drug-resistant strains of P. falciparum parasite clones D-6 and W-2 at The National Center for Natural Products Research (NCNPR) at The University of Mississippi using the parasite lactate dehydrogenase (pLDH) assay developed by Makler (Table 3). This assay is based on the ability of the pLDH enzyme of P. falciparum to reduce APAD to APADH. This reaction is carried out at a slow rate by human red blood cell LDH.
(§2) The formation of APADH was monitored colorimetrically by the addition of nitroblue tetrazolium which was reduced to a blue formazan product. Two P. falciparum malaria parasite clones, designated as Indochina (W-2) and Sierra Leone (D-6), were used in susceptibility testing. The W-2 clone is chloroquine-resistant and mefloquine-sensitive, while the D-6 clone is chloroquine-sensitive but mefloquine resistant. The relative potency values for these analogs were derived from the IC50 value for artemisinin (1) divided by their IC50 values (Table 3) and then adjusted for molecular weight differences by multiplication of the ratio of the molecular weight of the analog divided by the molecular weight of artemisinin. This approach to reporting activity was based in part on the fact that the analogs were tested on different occasions in which the IC50 for the control, artemisinin, had varied anywhere from 5 to 7 ng/mL based on parasitemia levels and clone.
(§3) Synthesized compounds were tested in vitro against two P. falciparum malaria parasite clones, designated as Indochina (W-2) and Sierra Leone (D-6). The W-2 clone is chloroquine resistant whereas the D-6 clone is a chloroquine-sensitive strain.
(§4) A suspension of red blood cells infected with W-2 or D-6 strain of P. falciparum that contains 2% parasitemia and 2% hematocrit in RPMI 1640 medium supplemented with 10% human serum and 60 µg/mL amikacin was dispensed into the wells of a 96-well flat-bottomed microtiter plate containing 10 µL of serially diluted test samples. The plates were incubated at 37 °C in an environment of 90% N2, 5% O2, and 5% CO2 for 72 h. Next, 100 µL aliquots of the Malstat reagent were added to each well of a new 96-well microtiter plate. The cultures were resuspended from the assay plate by mixing each well up and down several times. A total of 20 µL from each well of the resuspended culture was removed and added to the plate containing the Malstat reagent and the plate was incubated at r.t., for 30 min. Further, to each well, 20 µL of a NBT/PES (1:1) solution (2 and 0.1 mg/mL, respectively) were added. The plate was incubated in the dark for 1 h. The reaction was terminated by the addition of 100 µL of a 5% acetic acid solution. The […] plate was then read at 650 nm. Artemisinin and chloroquine were included in each assay as antimalarial drug controls. The IC50 values were computed from the dose–response curves using XLfit 4.2.

For series [2], the system named is P. falciparum Indochina (W-2) clone. As to the kind of experiment: In vitro antimalarial pLDH assay, W-2 clone. Conditions: for IC50: Plasmodium falciparum, Erythrocyte, read-out: IC50 (ng/mL) W-2; for IC50 / IC50 (ng/mL) W-2: 72 h, parasitized red blood cells, pLDH readout, NA = Not active. In kind it is cell-based. The method, then:
as §1, §2, §3, §4

The subject of series [3] is P. falciparum. As to the kind of experiment: In vitro antimalarial pLDH assay, clone not distinguished in the statement. The format is cell-based. The following applies: for in vitro antimalarial activity (in words): W-2 and D-6 strains. On the procedure:
as §1, §2, §3, §4

[4] abbreviates: 100 × [IC50 (artemisinin, control value)/IC50 (analog)] MW (analog)/MW(artemisinin).
Setting [5] is: as quoted in the Discussion, relative to artemisinin.

Each structure is given as a SMILES string. ≈ marks a conversion by molar mass, not a printed value. Entries after “also recorded” stand apart in the source; their conditions may differ.

Regarding `C[C@@H]1CC[C@H]2[C@@H](C)C(=O)O[C@@H]3O[C@@]4(C)CC[C@@H]1[C@]32OO4` [Compound 1, Artemisinin], the “Relative Activity D-6” value in series [1] (setting [4]) is given as 100. Further, the IC50 is 7.05 ng/mL (≈ 0.025 µM) in series [1]; 5.08 ng/mL (≈ 0.018 µM) in series [2]; 0.005 to 0.007 µg/mL (≈ 0.0177 to 0.0248 µM) in series [3] (Plasmodium falciparum, varied between test occasions, based on parasitemia levels and clone, read-out: IC50 for the control, artemisinin). Further, in series [2] (setting [4]), the “Relative Activity W-2” value is 100.
In turn, `CC12CC(OC(=O)c3ccccc3)C3CCCCC3(CO1)OO2` (stereo not shown) [Compound 10, 3-Methyloctahydro-1H-3,9a-epidioxybenzo[c]oxepin-5-yl benzoate] yielded a melting point of 100 to 102 °C. Also, the “Relative Activity D-6” value in series [1] (setting [4]) was determined as 10.40. Besides, the IC50 in series [1] came to 153 ng/mL (≈ 0.48 µM). Moreover, the “Relative Activity W-2” value in series [2] (setting [4]) was determined as 9.50. Moreover, the IC50 in series [2] is 121 ng/mL (≈ 0.38 µM).
For the compound `CC12CC(=O)C3CCCCC3(CO1)OO2` (stereo not shown) [Compound 15, 3-Methylhexahydro-1H-3,9a-epidioxybenzo[c]oxepin-5(5aH)-one], the “Relative Activity D-6” value in series [1] (setting [4]) is given as 33.30; in series [1] (setting [5]), 33.30%. The IC50 in series [1] was found to be 31.8 ng/mL (≈ 0.15 µM); in series [2], 23.3 ng/mL (≈ 0.11 µM). Moreover, the figures for the “Relative Activity W-2” value in series [2] (setting [4]) and in series [2] (setting [5]) were 32.72 and 32.72%, respectively. Further, the “in vitro antimalarial activity (in words)” value in series [3] is “substantially improved over the corresponding alcohol 2”. In addition, the “times more potent than the alcohol rac-2 or 2a” value in series [3] (fold potency versus rac-2 or 2a) was 55–77.
With `COC(C(=O)OC1CC2(C)OCC3(CCCCC13)OO2)(c1ccccc1)C(F)(F)F` [Compound 19b, (3S,5S,5aS,9aR)-3-methyloctahydro-1H-3,9a-epidioxybenzo[c]oxepin-5-yl(R)-3,3,3-trifluoro-2-methoxy-2-phenylpropanoate], the results for the “Relative Activity D-6” value in series [1] (setting [4]) and in series [1] (setting [5]) were 0.50 and 0.50%, respectively. The “IC50 (ng/mL) D-6” value in series [1] was 2169.31 ng/mL (≈ 5.04 µM). For the same compound, the figures for the “Relative Activity W-2” value in series [2] (setting [4]) and in series [2] (setting [5]) were 0.34 and 0.34%, respectively. Besides, the “IC50 (ng/mL) W-2” value in series [2] was 2255.40 ng/mL (≈ 5.24 µM).
Regarding `CC(=O)OCC12CCCCC1C(O)CO2` (stereo not shown) [Compound 22, (3-Hydroxyhexahydrobenzofuran-7a(2H)-yl)methyl acetate], the melting point lay in the range of 123 to 125 °C. Besides, the “in vitro antimalarial activity (in words)” value in series [3] is “Neither 22 nor 29 possessed in vitro antimalarial activity; also recorded: no antimalarial activity”.
The compound `COc1ccc(C(=O)OC2CC3(C)OCC4(CCCCC24)OO3)cc1` (stereo not shown) [Compound 12, 3-Methyloctahydro-1H-3,9a-epidioxybenzo[c]oxepin-5-yl 4-methoxybenzoate] returned a melting point of 155 to 157 °C. Further, in series [1] (setting [4]), the “Relative Activity D-6” value is 15.13. Further, the IC50 in series [1] turned out to be 115 ng/mL (≈ 0.33 µM). Further, the “Relative Activity W-2” value in series [2] (setting [4]) came out at 7.50. For the same compound, the IC50 in series [2] came to 167 ng/mL (≈ 0.48 µM).
In the case of `CCCCC(=O)OC1CC2(C)OCC3(CCCCC13)OO2` (stereo not shown) [Compound 9, 3-Methyloctahydro-1H-3,9a-epidioxybenzo[c]oxepin-5-yl pentanoate], the “Relative Activity D-6” value in series [1] (setting [4]) is listed as 5.00. Also, the IC50 is 149 ng/mL (≈ 0.5 µM) in series [1] and 209 ng/mL (≈ 0.7 µM) in series [2]. The “Relative Activity W-2” value in series [2] (setting [4]) is reported as 2.60.
Regarding `CC12CC(OC(=O)c3ccc(Cl)cc3)C3CCCCC3(CO1)OO2` (stereo not shown) [Compound 14, 3-Methyloctahydro-1H-3,9a-epidioxybenzo[c]oxepin-5-yl 4-chlorobenzoate], the melting point fell in the range of 110 to 112 °C. For the same compound, in series [1] (setting [4]), the “Relative Activity D-6” value was 12.18. In addition, in series [1], the IC50 amounted to 145 ng/mL (≈ 0.41 µM). The “Relative Activity W-2” value in series [2] (setting [4]) is reported as 10.58. For the same compound, the IC50 in series [2] is 120 ng/mL (≈ 0.34 µM).
`C[C@]12C[C@H](O)[C@@H]3CCCC[C@@]3(CO1)OO2` [Compound 2b, (3S,5S,5aS,9aR)-3-methyloctahydro-1H-3,9a-epidioxybenzo[c]oxepin-5-ol] registered a melting point of 107 to 109 °C. For the same compound, the “in vitro antimalarial activity (in words)” value in series [3] is on record as “devoid of antimalarial activity”.
`C[C@@]12C[C@@H](O)[C@H]3CCCC[C@]3(CO1)OO2` [Compound 2a, (3R,5R,5aR,9aS)-3-methyloctahydro-1H-3,9a-epidioxybenzo[c]oxepin-5-ol] came in with a melting point of 108 to 110 °C. Moreover, the “Relative Activity D-6” value in series [1] (setting [4]) was 0.43. Moreover, the IC50 in series [1] was found to be 1260 ng/mL (≈ 5.86 µM). Besides, in series [1] (setting [5]), the “Relative Activity D-6” value turned out to be 0.43%. Further, the “Relative Activity W-2” value in series [2] (setting [4]) is 0.44. For the same compound, in series [2], the IC50 stood at 885 ng/mL (≈ 4.13 µM). Further, the “Relative Activity W-2” value in series [2] (setting [5]) came out at 0.44%. In addition, the “in vitro antimalarial activity (in words)” value in series [3] is recorded as “Antimalarial activity resided with only the artemisinin-like enantiomer; also recorded: the only alcohol of the pair with antimalarial activity”.
As for `C=C1CC2(C)OCC3(CCCCC13)OO2` (stereo not shown) [Compound 16], the “Relative Activity D-6” value in series [1] (setting [4]) turned out to be 3.05. Besides, the IC50 is 345 ng/mL (≈ 1.64 µM) in series [1] and 346 ng/mL (≈ 1.65 µM) in series [2]. Further, the “Relative Activity W-2” value in series [2] (setting [4]) came to 2.18.
With `CC12CC(O)C3CCCCC3(CO1)OO2` (racemic) [rac-2, 3-Methyloctahydro-1h-3,9a-epidioxybenzo[c]oxepin-5-ol], the melting point was 109 to 111 °C. Moreover, the IC50 in series [1] is 1720 ng/mL (≈ 8.01 µM). For the same compound, the “Relative Activity D-6” value in series [1] (setting [5]) is on record as 0.62%. For the same compound, the “Relative Activity W-2” value in series [2] (setting [4]) came to 0.43. In addition, in series [2], the IC50 was found to be 1780 ng/mL (≈ 8.3 µM). Also, the “Relative Activity W-2” value in series [2] (setting [5]) is recorded as 0.43%.
Turning to `CC12CC(OC(=O)C=Cc3ccccc3)C3CCCCC3(CO1)OO2` (stereo not shown) [Compound 13, 3-Methyloctahydro-1H-3,9a-epidioxybenzo[c]oxepin-5-yl cinnamate], in series [1] (setting [4]), the “Relative Activity D-6” value worked out at 13.14. The IC50 amounted to 131 ng/mL (≈ 0.38 µM) in series [1] and 148 ng/mL (≈ 0.43 µM) in series [2]. For the same compound, the “Relative Activity W-2” value in series [2] (setting [4]) is reported as 8.37.
Turning to `COC(C(=O)OC1CC2(C)OCC3(CCCCC13)OO2)(c1ccccc1)C(F)(F)F` [Compound 19a, (3R,5R,5aR,9aS)-3-methyloctahydro-1H-3,9a-epidioxybenzo[c]oxepin-5-yl(R)-3,3,3-trifluoro-2-methoxy-2-phenylpropanoate], the “Relative Activity D-6” value in series [1] (setting [4]) was found to be 7.13. The “IC50 (ng/mL) D-6” value in series [1] was determined as 150.64 ng/mL (≈ 0.35 µM). In series [2] (setting [4]), the “Relative Activity W-2” value is listed as 2.17. Besides, the “IC50 (ng/mL) W-2” value in series [2] amounted to 357.24 ng/mL (≈ 0.83 µM).
On to `CC(=O)OCC1(O)CCCCC1C(C)=O` (stereo not shown) [Compound 29, (2-Acetyl-1-hydroxycyclohexyl)methyl acetate], for which the “in vitro antimalarial activity (in words)” value in series [3] is “Neither 22 nor 29 possessed in vitro antimalarial activity; also recorded: no antimalarial activity”.
For `CC12CC(OC(=O)c3ccc(F)cc3)C3CCCCC3(CO1)OO2` (stereo not shown) [Compound 11, 3-Methyloctahydro-1H-3,9a-epidioxybenzo[c]oxepin-5-yl 4-fluorobenzoate], the melting point lay in the range of 88 to 90 °C. In series [1] (setting [4]), the “Relative Activity D-6” value worked out at 20.81. Also, the IC50 in series [1] is 80.7 ng/mL (≈ 0.24 µM). For the same compound, the “Relative Activity D-6” value in series [1] (setting [5]) came to 20.81%. Besides, the “Relative Activity W-2” value in series [2] (setting [4]) is recorded as 12.41. The IC50 in series [2] is 97.5 ng/mL (≈ 0.29 µM). Also, the “Relative Activity W-2” value in series [2] (setting [5]) is listed as 12.41%.

The term melting point denotes the temperature, or range, at which the solid turns liquid.
